Data as given in the supplement of paper PMC10307832.

Assays:
Assay in all cases: relative viability (nuclei count vs DMSO), 5 days (fraction); higher = more cells survive
NCI-H2087 = tested on: NCI-H2087
Outline: (§1)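 Relative viability divides the nuclei count in treated wells by that in vehicle wells. Lung cancer cell lines were seeded in 1536-well plates, dosed by pin tool the next day, and fixed and stained after 5 days in one step with final 0.05% Triton X-100, 1% formaldehyde and 1 ug/ml Hoechst. Dosing was a single drug or a fixed anchor-drug dose plus five library-drug doses (not always all listed) in √10 steps, and values are medians of duplicate plates imaged at 4×.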

NCI-H1793 = tested on: NCI-H1793
Outline: as §1

PC-3 [JPC-3] = tested on: PC-3 [JPC-3]
Outline: as §1

NCI-H2170 = tested on: NCI-H2170
Outline: as §1

NCI-H1651 = tested on: NCI-H1651
Outline: as §1

HCC-366 = tested on: HCC-366
Outline: as §1

NCI-H1395 = tested on: NCI-H1395
Outline: as §1

NCI-H2405 = tested on: NCI-H2405
Outline: as §1

ChaGo-K-1 = tested on: ChaGo-K-1
Outline: as §1

NCI-H2228 = tested on: NCI-H2228
Outline: as §1

LU99A = tested on: LU99A
Outline: as §1

Which relative viability (NCI-H2087; first compound 0.08 µM) does the source give for `O=c1cc(-c2cccc3c2Sc2ccccc2S3)oc(N2CCOCC2)c1` + Nc1nc2[nH]cc(CCc3ccc(C(=O)N[C@@H](CCC(=O)O)C(=O)O)cc3)c2c(=O)[nH]1 [Pemetrexed] (partner 0.2 µM) here?
Its relative viability is 0.669.

And the relative viability (NCI-H2087; first compound 0.253 µM)?
Its relative viability is 0.662.

What about the relative viability (NCI-H2087; first compound 0.8 µM) of the same compound?
Its relative viability is 0.726.

And the relative viability (NCI-H2087; first compound 2.53 µM)?
Its relative viability is 0.649.

What about the relative viability (NCI-H2087; first compound 8 µM) of the same compound?
The relative viability was 0.674.

And the relative viability (NCI-H1793; first compound 0.08 µM)?
Its relative viability is 0.728.

What about the relative viability (NCI-H1793; first compound 0.253 µM) of the same compound?
The relative viability was 1.04.

What about the relative viability (NCI-H1793; first compound 0.8 µM) of the same compound?
The relative viability was 0.798.

And the relative viability (NCI-H1793; first compound 2.53 µM)?
Its relative viability is 0.679.

What about the relative viability (NCI-H1793; first compound 8 µM) of the same compound?
The relative viability was 1.2.

And the relative viability (PC-3 [JPC-3]; first compound 0.08 µM)?
The relative viability was 0.721.

And the relative viability (PC-3 [JPC-3]; first compound 0.253 µM)?
The relative viability was 1.11.

What about the relative viability (PC-3 [JPC-3]; first compound 0.8 µM) of the same compound?
The relative viability was 1.3.

And the relative viability (PC-3 [JPC-3]; first compound 2.53 µM)?
Its relative viability is 0.996.

And the relative viability (PC-3 [JPC-3]; first compound 8 µM)?
Its relative viability is 1.08.

And the relative viability (NCI-H2170; first compound 0.08 µM)?
Its relative viability is 0.268.

What about the relative viability (NCI-H2170; first compound 0.253 µM) of the same compound?
The relative viability was 0.271.

What about the relative viability (NCI-H2170; first compound 0.8 µM) of the same compound?
The relative viability was 0.292.

And the relative viability (NCI-H2170; first compound 2.53 µM)?
The relative viability was 0.256.

What about the relative viability (NCI-H2170; first compound 8 µM) of the same compound?
Its relative viability is 0.262.

What about the relative viability (NCI-H1651; first compound 0.08 µM) of the same compound?
The relative viability was 0.563.

And the relative viability (NCI-H1651; first compound 0.253 µM)?
Its relative viability is 0.636.

What about the relative viability (NCI-H1651; first compound 0.8 µM) of the same compound?
The relative viability was 0.604.

And the relative viability (NCI-H1651; first compound 2.53 µM)?
Its relative viability is 0.589.

What about the relative viability (NCI-H1651; first compound 8 µM) of the same compound?
The relative viability was 0.603.

And the relative viability (HCC-366; first compound 0.08 µM)?
The relative viability was 0.154.

And the relative viability (HCC-366; first compound 0.253 µM)?
The relative viability was 0.193.

And the relative viability (HCC-366; first compound 0.8 µM)?
Its relative viability is 0.167.

What about the relative viability (HCC-366; first compound 2.53 µM) of the same compound?
The relative viability was 0.154.

And the relative viability (HCC-366; first compound 8 µM)?
Its relative viability is 0.155.

What about the relative viability (NCI-H1395; first compound 0.08 µM) of the same compound?
The relative viability was 0.842.

And the relative viability (NCI-H1395; first compound 0.253 µM)?
The relative viability was 0.764.

What about the relative viability (NCI-H1395; first compound 0.8 µM) of the same compound?
The relative viability was 0.936.

And the relative viability (NCI-H1395; first compound 2.53 µM)?
Its relative viability is 0.765.

What about the relative viability (NCI-H1395; first compound 8 µM) of the same compound?
Its relative viability is 1.09.

And the relative viability (NCI-H2405; first compound 0.08 µM)?
Its relative viability is 0.859.

What about the relative viability (NCI-H2405; first compound 0.253 µM) of the same compound?
The relative viability was 1.1.

And the relative viability (NCI-H2405; first compound 0.8 µM)?
Its relative viability is 1.06.

And the relative viability (NCI-H2405; first compound 2.53 µM)?
The relative viability was 0.83.

And the relative viability (NCI-H2405; first compound 8 µM)?
The relative viability was 1.02.

What about the relative viability (ChaGo-K-1; first compound 0.08 µM) of the same compound?
The relative viability was 0.251.

And the relative viability (ChaGo-K-1; first compound 0.253 µM)?
Its relative viability is 0.264.

And the relative viability (ChaGo-K-1; first compound 0.8 µM)?
The relative viability was 0.248.

What about the relative viability (ChaGo-K-1; first compound 2.53 µM) of the same compound?
The relative viability was 0.287.

What about the relative viability (ChaGo-K-1; first compound 8 µM) of the same compound?
The relative viability was 0.273.

And the relative viability (NCI-H2228; first compound 0.08 µM)?
Its relative viability is 0.351.

What about the relative viability (NCI-H2228; first compound 0.253 µM) of the same compound?
The relative viability was 0.359.

And the relative viability (NCI-H2228; first compound 0.8 µM)?
The relative viability was 0.336.

What about the relative viability (NCI-H2228; first compound 2.53 µM) of the same compound?
Its relative viability is 0.355.

What about the relative viability (NCI-H2228; first compound 8 µM) of the same compound?
Its relative viability is 0.473.

And the relative viability (LU99A; first compound 0.08 µM)?
The relative viability was 0.201.

What about the relative viability (LU99A; first compound 0.253 µM) of the same compound?
The relative viability was 0.169.
